Laboratory results reported in patent EP0840781B1, “METHODS AND DEVICES FOR THE REMOVAL OF PSORALENS FROM BLOOD PRODUCTS” (Cerus Corporation, priority 1995, dated 1996).
Values joined by “and” are separate entries in the source; they are usually repeats but may differ in a detail not shown here. Equal entries are not always repeated. Where two headings read alike, the source gives them in different places.

Legend:
[1] = HPLC retention time as rough estimate of hydrophobicity; type: physicochemical; details: C-18 reversed phase column, methanol / 25 mM KH2PO4 pH 3.5 gradient
Experimental: Adsorption data were then obtained by HPLC. analysis on the test and control samples. Specifically, a 200 µl sample volume of PC was removed from each tube following the incubation period (special care being taken to ensure that no adsorbent particles were removed with the test samples). […] The addition of methanol lyses platelets and precipitates plasma proteins so that psoralen contained within the platelets is not excluded by the assay.
Since each of the psoralens were analyzed using the same type of HPLC assay, one can use the psoralens' relative retention times to rank them according to increasing hydrophobicity. […] Strong interactions with cells or plasma proteins could compete with adsorption, thereby interfering with resin binding.

[2] = system: Pseudomonas; assay: Bacterial inactivation by compound plus UVA, colony forming units; type: cell-based; details: 16 µM; 5 J/cm^2 irradiation; starting titer 6.5 logs
Experimental: In this example bacterial inactivation by the photoreactive nucleic acid binding compounds described herein was measured as a function of the ability of the bacteria to subsequently replicate. A gram negative bacteria was chosen as representative of the more difficult bacterial strains to inactivate.
The bacteria a strain of Pseudomonas, was inoculated into LB with a sterile loop and grown overnight in a shaker at 37°C. Based on the approximation that one OD at 610 nm is equivalent to 5 x 10^8 colony forming units (cfu)/mL, a 1:10 dilution of the culture was measured on a spectrophotometer. (manufactured by Shimatsu). The bacterial culture was added to a solution of 15% fetal bovine serum in DMEM to a final bacteria concentration of approximately 10^6/mL. An aliquot (0.8 mL) was transferred to a 1.5 mL snap-top polyethylene tube. An aliquot (0.004-0.040 mL) of the test compound stock solution prepared in water, ethanol or dimethylsulfoxide at 0.80-8.0 mM was added to the tube. Compounds were tested at a concentration of 16 µM. The tubes were placed in a light device as described in EXAMPLE I and irradiated with 1.3 J/cm^2, 1.2 J/cm^2, and finally 2.5 J/cm^2, for a total of 5 J/cm^2. 150 µL were removed for testing after each pulse period. Sterile 13 mL dilution tubes were prepared; each test compound required one tube with 0.4 mL of LB broth and four tubes containing 0.5 mL of LB broth. To make the dilutions, a 0.050 mL aliquot of the irradiated solution of phage and test compound was added to the first dilution tube of […] of media then 0.050 mL of this solution was added to the second tube of 0.5 mL medium (1:10). The second solution was then diluted serially (1:10) into the remaining tubes. 100 µL of the original sample and each dilution are plated separately onto LB agar plates and incubated at 37 °C overnight. The colony forming units were then counted the following morning and the titer of the phage remaining after phototreatment was calculated based on the dilution factors.
The following controls were run: the "bacteria only" in which bacteria was not treated with test compound and not irradiated (listed as "starting titer" in the tables below); the "UV only" in which the bacteria was irradiated in the absence of test compound. Dark controls were not performed here for reasons set forth in Example 12 above.

[3] = system: Salmonella typhimurium tester strains TA97a, TA98, TA100, TA102, TA1537 and TA1538; details: two-fold or greater increase in revertants above background and dose dependent response; TA100, TA102
Source text: The second property that is important in testing a compound for use in methods described herein is mutagenicity. The most widely used mutagen/carcinogen screening assay is the Ames test. This assay is described by D.M. Maron and B.N. Ames in Mutation Research 113:173 ( 1983) and a specific screen is described in detail in Example 17, below. The Ames test utilizes several unique strains of Salmonella typhimurium that are histidine- dependent for growth and that lack the usual DNA repair enzymes. The frequency of normal mutations that render the bacteria independent of histidine (i.e., the frequency of spontaneous revertants) is low. The test allows one to evaluate the impact of a compound on this revenant frequency.
Because some substances are not mutagenic by themselves, but are converted to a mutagen by metabolic action, the compound to be tested is mixed with the bacteria on agar plates along with the liver extract. The liver extract serves to mimic metabolic action in an animal.
The mixtures are allowed to incubate. Growth of bacteria (if any) is checked by counting colonies.
In this example the compounds described herein are tested for their dark mutagenicity using an Ames assay. The procedures used for the Salmonella mutagenicity test as described in detail by Maron and Ames were followed exactly. Maron, D.M. and B.N. Ames, Mutation Research 113: 173 ( 1983). A brief description for each procedure is given here. The tester strains TA97a, TA98, TA 100, TA102, TA1537 and TA1538 were obtained from Dr. Ames. TA97a, TA98, TA1537 and TA1538 are frameshift tester strains. TA100 and TA102 are base-substitution tester strains. Upon receipt each strain was cultured under a variety of conditions to confirm the genotypes specific to the strains.
The first tests done with the strains were to determine the range of spontaneous reversion for each of the strains. With each mutagenicity experiment the spontaneous reversion of the tester strains to histidine independence was measured and expressed as the number of spontaneous revertants per plate. This served as the background controls.
For all experiments, the pre-incubation procedure was used. In this procedure one vial of each tester strain was thawed and 20 µL of this culture was added to 6 mL of Oxoid Nutrient Broth #2. This solution was allowed to shake for 10 hours at 37°C. In the pre-incubation procedure, 0.1 mL of this overnight culture was added to each of the required number of sterile test tubes. To half of the tubes 0.5 mL of a 10% S-9 solution containing Aroclor 1254 induced rat liver extract (Molecular Toxicology Inc., Annapolis, MD), and MgCl2, KCl, glucose-6-phosphate, NADP, and sodium phosphate buffer (Sigma, St. Louis, Missouri) were added. To the other half of the tubes 0.5 mL of 0.2M sodium phospate buffer, pH 7.4, was used in place of the S-9 mixture (the - S9 samples). Finally 0.1 mL of the test solution containing either 0, 0.1, 0.5, 1, 5, 10, 50, 100, 250, or 500 µg/mL of the test compound was added. The 0.7 mL mixture was vonexed and then pre-incubated while shaking for 20 minutes at 37°C. After shaking, 2 mL of molten top agar supplemented with histidine and biotin were added to the 0.7 mL mixture and immediately poured onto a minimal glucose agar plate (volume of base agar was 20 mL). The top agar was allowed 30 minutes to solidify and then the plates were inverted and incubated for 44 hours at 37°C. After incubation the number of revertant colonies on each plate were counted.
Maron and Ames (1983) describe the conflicting views with regard to the statistical treatment of data generated from the test.

[4] = system: R17; assay: r-17 bacteriophage assay: R17 treated with compound and UVA, remaining titer by plaque count on Hfr 3000 bacteria; type: cell-based
Experimental: In the r-17 assay, the bacteriophage was placed in a solution with each compound tested and was then irradiated. The ability of the phage to subsequently infect bacteria and inhibit their growth was measured. The bacteriophage was selected for its relatively accessible nucleic acid such that the culture growth inhibition would accurately reflect nucleic acid damage by the test compounds. The bacteriophage assay for nucleic acid binding to test compounds offers a safe and inexpensive procedure to identify compounds likely to display efficient pathogen inactivation. Previous experiments support that the r-17 assay accurately measures HIV-1 sensitivity to similar compounds. […] Modified Eagles Medium (DMEM) to a final phage concentration of 10^9/mL. An aliquot (0.5 mL) was transferred to a 1.5 mL snap-top polyethylene tube. […] Louis, MO). The tubes were placed in a light device as described in EXAMPLE 1 and irradiated for between 1 and 10 minutes. […] To make the dilutions. a 0.100 mL aliquot of the irradiated solution of phage and test compound was added to the first dilution tube of 0.4 mL of media then 0.020 mL of this solution was added to the second tube of 0.5 mL medium (1:25). […] After the top agar hardened, the plates were incubated at 37 °C overnight. The plaque forming units were then counted the following morning and the titer of the phage remaining after phototreatment was calculated based on the dilution factors. The following controls were run: the "phage only" in which phage was not treated with test compound and not irradiated (listed as "starting titer" in the tables below); the "UV only" in which the phage was irradiated in the absence of test compound; and the "dark" control in which the phage/test compound solution was not irradiated before it was diluted and plated. Compounds described herein were also tested at a constant concentration for varying doses of UV light. […] The compound tested was added at the desired concentration and the samples were vortexed. […] Between each 1.0 J/cm^2 intervals, 100µL was removed from each sample and placed in the first corresponding dilution tube, then five sequential dilutions were performed for each compound tested, at all 3 irradiation doses, as described above in this example. […] The contents of each tube was poured into its own LB plate and the plates were incubated overnight at 37 °C. Plaques were counted by visual inspection the following morning.

[5] = system: HIV-1; details: 1 Minute Irradiation, HIV Starting Titer Approximately 5.4 Logs (Table 11)
[6] = system: Male Balb/c mice
Experimental: Male Balb/c mice were then injected with 0.1 ml of a compound solution via the tail vein. At least 3 mice were injected per dose level Saline only was used as a negative control. For a positive control, cyclophosphamide (cycloPP) was administered at a dose of 30 mg/kg. In the experimental group, the injections were repeated once per day for four days. In the positive control group, the sample was administered only once, on day three. On day 5, several microliters of blood were withdrawn from each subject and smeared on a glass slide. Cells were fixed in absolute methanol and stored in a slide rack.
For analysis, cells were stained with acridine orange and visualized under a fluorescence microscope by counting: (i) the number of reticulocytes per 5000 erythrocytes; and (ii) the number of micronucleated reticulocytes per 1000 reticulocytes. Reticulocytes were distinguished by their red fluorescence due to the presence of RNA. Micronuclei were distinguished by their green fluorescence due to the presence of DNA. The percentage of reticulocytes (%PCE) was then calculated. A decrease in the frequency of erythrocytes, represented by an increase in the percentage of reticulocytes, is an indication of bone marrow toxicity. The percentage of reticulocytes with micronuclei (%PCE with MN) was also calculated. An increase in %PCE with MN is a measure of elastogenicity.
After initial results were determined, the experiment was repeated using increased dose levels, until: (i) Micronucleus formation was seen; or (ii). Bone marrow toxicity was observed; or (iii) The lethal dose was reached; or (iv) A dose of 5 g/kg was administered.

[7] = positive control, Dose 30 mg/kg administered only once, on day three, one value per experiment, 30 mg/kg

Structure (SMILES): CC[N+](CC)(CC)Cc1c(C)oc2c(C)c3oc(=O)cc(C)c3cc12 [Psoralen A, 4'-(triethylamino) methyl-4,5',8-trimethylpsoralen]
- HPLC retention time (rough estimate of hydrophobicity) [1]: 7.8 min

Structure (SMILES): COc1c2occc2cc2ccc(=O)oc12 [Compound 8-MOP, 8-Methoxypsoralen, reference compound]
- log kill of bacteria (Pseudomonas) [2]: 1.9 logs
- base-substitution mutagenicity (Ames, summary) [3]: weak base-substitution mutagen in TA102 at 500µg/plate
- R17 log kill (32 µM) ([4]; 32 µM, 1 Minute Irradiation, Starting Titer Approx. 7.5 Logs (Table 6)): 0

Structure (SMILES): CCN(CC)CCCOc1c2occc2c(Br)c2ccc(=O)oc12 [Psoralen C, 5-bromo-8-(diethylaminopropyloxy)-psoralen]
- HPLC retention time (rough estimate of hydrophobicity) [1]: 12.0 min

Structure (SMILES): Cc1cc(=O)oc2c(C)c3oc(CNCCCCN)c(C)c3cc12 [Compound 17, 5'-(6-amino-2-aza)hexyl-4,4',8-trimethylpsoralen]
- HIV Log Kill ([5]; 16 µM): 1.2
- HIV Log Kill ([5]; 32 µM): 2.9
- HIV Log Kill ([5]; 64 µM): 3.4
- efficiency at inactivating R17 compared with AMT ([4]; constant concentration, varying doses of UV light 1.0-3.0 J/cm^2 (FIGS. 11-17)): more efficient at inactivating R17 than was AMT
- bone marrow toxicity or micronucleus formation ([6]; experiment repeated using increased dose levels): the acutely lethal dose was reached before there were any signs of bone marrow toxicity or micronucleus formation

Structure (SMILES): COc1c2occc2c(Br)c2ccc(=O)oc12 [Psoralen B, 5-bromo-8-methoxypsoralen]
- HPLC retention time (rough estimate of hydrophobicity) [1]: 20.0 min

Structure (SMILES): O=P1(N(CCCl)CCCl)NCCCO1 (stereo not shown) [CycloPP, cyclophosphamide, reference compound]
- PCE + MN (%) [6, 7]: 1.98 ± 0.40% and 1.76 ± 0.64%
- PCE/RBC (%) [6, 7]: 1.39 ± 0.41% and 1.65 ± 0.64% and 0.99 ±0.33%
